Measured values taken from patent US20090298947A1, “POLYMORPHIC AND AMORPHOUS FORMS OF […] AMORPHOUS COMPOSITIONS” (PLIVA HRVATSKA D.O.O., priority 2008, published 2009).

Assays:
[1] = Interconversion of form II to form I in stirred suspension, crystal form determined using XRPD; format: physicochemical
Experimental: Samples after being powdered in a mortar and pestle are applied directly on silicon plate holder. The X-ray powder diffraction pattern was measured with Philips X'Pert PRO X-ray powder diffractometer, equipped with Cu irradiation source=1.54060 ? ( ? ngstrom), X'C.elerator (2.022° 2Θ) detector. Scanning parameters: angle range: 3-40 deg., step size 0.0167, time per step 100 s, continuous scan. The accuracy of peak positions was defined as ±0.2 degrees due to experimental differences like instrumentations and sample preparations.
(§1) 27.0 g of Lacosamide was dissolved in 300 ml of ethyl acetate. Solution crystallized by cooling at about 42° C. Suspension was cooled to 40° C. and samples were taken in time intervals, filtered and crystal form was determined using XRPD. […] Crystals were filtered, washed with ethyl acetate and dried at 50° C./vacuo yielding 20.0 g Lacosamide form I.
as §1, with “30.0” for “27.0”, “239” for “300”, “acetate and 1 ml of water.” for “acetate.”, “46°” for “42°”, “with cold” for “with”, “22.9” for “20.0”

[2] = Temperature dependent X-ray powder diffraction, heating of form II; format: physicochemical
Experimental: Temperature dependent X-ray powder diffraction (TDXD) was carried out with a Bruker AXS D8 θ-θ powder diffractometer with parafocusing Bragg-Brentano geometry using CuKα radiation (λ=1.5418 Å, U=34 kV, I=20 mA). The sample was placed on a Pt/Rh ribbon in a MRI high-temperature oven-camera and VPSlits were used to fix the constant irradiated length (20 mm). Data were scanned with an ultrafast detector LynxEye over the angular range 3-38° (2θ) with a step size of 0.0196° (2θ) and a counting time of 58.6 s step^−1. The heating and cooling process was controlled by Eurotherm 2404.
The sample of form II lacosamide (50 mg) was placed on a Pt/Rh ribbon in a MRI high-temperature oven-camera, and heated at rate of 10° C./min up to 100° C. The heating and cooling process was controlled by Eurotherm 2404.

Row | Structure (SMILES) | crystal form determined using XRPD ([1]; suspension in ethyl acetate and water (239 ml/1 ml), after 2 hours at 40° C.) | crystal form determined using XRPD ([1]; suspension in ethyl acetate and water (239 ml/1 ml), sample taken immediately when temperature reached 40° C.) | crystal form determined using XRPD ([1]; suspension in ethyl acetate, after 2 hours at 40° C.) | crystal form determined using XRPD ([1]; suspension in ethyl acetate, after 4 hours at 40° C.) | crystal form determined using XRPD ([1]; suspension in ethyl acetate, sample taken immediately when temperature reached 40° C.) | temperature of transformation of form II to form III ([2]; heated at 10° C./min up to 100° C.) | reversibility of transformation of form II to form III ([2]; sample cooled back to room temperature)
1 | COC[C@@H](NC(C)=O)C(=O)NCc1ccccc1 [Lacosamide, (R)-N-benzyl-2-acetamido-3-methoxypropionamide] | form I | mixture of form I and form II | mixture of form I and form II | form I | form II | – | –
2 | COC[C@@H](NC(C)=O)C(=O)NCc1ccccc1 [form II lacosamide, (R)-N-benzyl-2-acetamido-3-methoxypropionamide] | – | – | – | – | – | around 80 °C | completely reversible
